Tests used:
GBM4 cells = assay: GBM4 viability assay (Cell Titer Glo luminescence); format: cell-based; settings: 72 h; human glioblastoma neurosphere cells GBM4, 3 days incubation at 37° C., inhibition of cell growth by Cell Titer Glo luminescence
Description: (§1) Cell culture medium was prepared from a NSA proliferation kit (Neurocult) and NeuroCult supplements (Stemcell Tech Cat. #05751) and treated with 20 μL of 10 μg/mL rh EGF, 10 μL of 10 μg/mL rh bFGF and 10 μL of 0.2% Heparin. In this medium, human glioblastoma cells were cultured in ultra-low attachment tissue culture flasks until 1×10^6 cells ml was achieved (GBM4 and GBM8 are distinct neuro sphere cell cultures derived from these human patient tissues). GBM4 and GBM8 cells were dissociated and 10 mL of media containing 4000 human glioblastoma cells per 90 uL were transferred to an ultra-low binding 96-well plate and incubated at 37° C. overnight. On the following day, 10 μL of a 1% DMSO solution of test compound in assay medium was added to wells containing the cell suspension and the mixture incubated at 37° C. for 3 days. At this time, the plate was removed from the incubator and allowed to reach room temperature. After about 30 minutes, 50 μL of Cell Titer Glo solution was added to each well and the plate shaken for 1 minute at low speed. After 10 minutes luminescence was recorded using a Tecan Safire2 reader.
(§2) Reduction in luminescence compared to DMSO only control wells was used to determine the percentage inhibition of cell growth. IC50s were calculated using the % inhibition of luminescence for serial dilutions of compounds fitted to a 4-parameter fit within the Prism (San Diego) curve fitting program.

GBM8 cells = assay: GBM8 viability assay (Cell Titer Glo luminescence); format: cell-based; settings: 72 h; human glioblastoma neurosphere cells GBM8, 3 days incubation at 37° C., inhibition of cell growth by Cell Titer Glo luminescence; read-out: FBM8 (IC50)
Description: as §1, §2

SMILES | IC50 (GBM4 cells) [µM] | IC50 (GBM8 cells) [µM]
CCN1CCCC(Nc2cc(C)nc(NC(=N)Nc3ccc(Cl)c(Cl)c3)n2)C1 (racemic) [Compound 7, (±)-2-[3-(3,4-dichlorophenyl)guanidino]-4-(1-ethyl-3-piperidylamino)-6-methylpyrimidine] | < 10 | < 10
Cc1cc(Oc2ccncc2)nc(NC(=N)Nc2ccc(Cl)c(Cl)c2)n1 [Compound 8, 1-(3,4-dichlorophenyl)-3-[6-methyl-4-(4-pyridyloxy)-2-pyrimidinyl]guanidine] | > 30 | > 30
Cc1cc(NC2CCNCC2)nc(NC(=N)Nc2ccc(Cl)c(Cl)c2)n1 [Compound 9, 2-[3-(3,4-dichlorophenyl)guanidino]-6-methyl-4-(4-piperidylamino)pyrimidine] | > 30 | > 30
Cc1cc(N[C@H]2CCCNC2)nc(NC(=N)Nc2ccc(Cl)c(Cl)c2)n1 [Compound 10, (5)-1-(3,4-dichlorophenyl)-3-(4-methyl-6-(piperidin-3-ylamino)pyrimidin-2-yl)guanidine] | < 10 | < 10
Cc1cc(N[C@@H]2CCCNC2)nc(NC(=N)Nc2ccc(Cl)c(Cl)c2)n1 [Compound 11, (R)-1-(3,4-dichlorophenyl)-3-(4-methyl-6-(piperidin-3-ylamino)pyrimidin-2-yl)guanidine] | < 10 | < 10
CCN1CCC[C@@H](Nc2cc(C)nc(NC(=N)Nc3ccc(Cl)c(Cl)c3)n2)C1 [Compound 12, 4-[(3R)-1-ethyl-3-piperidylamino]-2-[3-(3,4-dichlorophenyl)guanidino]-6-methyl-pyrimidine] | < 10 | < 10
Cc1cc(Oc2cccnc2)nc(NC(=N)Nc2ccc(Cl)c(Cl)c2)n1 [Compound 13, 1-(3,4-dichlorophenyl)-3-[6-methyl-4-(3-pyridyloxy)-2-pyrimidinyl]guanidine] | 10 to 30 | > 30
Cc1cc(Nc2cccnc2)nc(NC(=N)Nc2ccc(Cl)c(Cl)c2)n1 [Compound 14, 2-[3-(3,4-dichlorophenyl)guanidino]-6-methyl-4-(3-pyridylamino)pyrimidine] | < 10 | < 10
Cc1cc(NC2CCCCC2)nc(NC(=N)Nc2ccc(Cl)c(Cl)c2)n1 [Compound 15, 4-(cyclohexylamino)-2-[3-(3,4-dichlorophenyl)guanidino]-6-methylpyrimidine] | < 10 | < 10
Cc1cc(NC2CCOCC2)nc(NC(=N)Nc2ccc(Cl)c(Cl)c2)n1 [Compound 16, 2-[3-(3,4-dichlorophenyl)guanidino]-6-methyl-4-(tetrahydro-2H-pyran-4-ylamino)-pyrimidine] | 10 to 30 | < 10
Cc1cc(OC2CCCNC2)nc(NC(=N)Nc2ccc(Cl)c(Cl)c2)n1 (stereo not drawn) [Compound 17, 1-(3,4-dichlorophenyl)-3-[6-methyl-4-(3-piperidyloxy)-2-pyrimidinyl]guanidine] | 10 to 30 | < 10
CCN1CCCC(Nc2cc(C)nc(NC(=N)N(C)c3ccc(Cl)c(Cl)c3)n2)C1 (stereo not drawn) [Compound 21, 2-[3-(3,4-dichlorophenyl)-3-methylguanidino]-4-[1-ethyl-3-piperidylamino]-6-methylpyrimidine] | 10 to 30 | > 30
CCN1CCC[C@H](Nc2cc(C)nc(NC(=N)Nc3ccc(Cl)c(Cl)c3)n2)C1 [Compound 24, (S)-1-(3,4-dichlorophenyl)-3-(4-(1-ethylpiperidin-3-ylamino)-6-methylpyrimidin-2-yl)guanidine] | < 10 | < 10
CCN1CCC(Oc2cc(C)nc(NC(=N)Nc3ccc(Cl)c(Cl)c3)n2)CC1 [Compound 25, 1-(3,4-dichlorophenyl)-3-[4-(1-ethyl-4-piperidyloxy)-6-methyl-2-pyrimidinyl]-guanidine] | 10 to 30 | 10 to 30
CCN1CCC(Nc2cc(C)nc(NC(=N)Nc3ccc(Cl)c(Cl)c3)n2)CC1 [Compound 26, 2-[3-(3,4-dichlorophenyl)guanidino]-4-(1-ethyl-4-piperidylamino)-6-methylpyrimidine] | < 10 | < 10
Cc1cc(N2CCN(C)CC2)nc(NC(=N)Nc2ccc(Cl)c(Cl)c2)n1 [Compound 27, 1-(3,4-dichlorophenyl)-3-[6-methyl-4-(4-methyl-1-piperazinyl)-2-pyrimidinyl]-guanidine] | 10 to 30 | < 10
Cc1cc(N(C)C)nc(NC(=N)Nc2ccc(Cl)c(Cl)c2)n1 [Compound 28, (N-methyl{2-[3-(3,4-dichlorophenyl)guanidino]-6-methyl-4-pyrimidinyl}amino)-methane] | < 10 | < 10
Cc1cc(N2CCOCC2)nc(NC(=N)Nc2ccc(Cl)c(Cl)c2)n1 [Compound 29, 1-(3,4-dichlorophenyl)-3-(4-methyl-6-morpholino-2-pyrimidinyl)guanidine] | < 10 | < 10
Cc1cc(NCCCN(C)C)nc(NC(=S)Nc2ccc(Cl)c(Cl)c2)n1 [Compound 31a, 1-{2-[3-(3,4-Dichlorophenyl)thioureido]-6-methyl-4-pyrimidinylamino}-3-(dimethylamino)propane] |  | < 10
Cc1cc(NCCCN(C)C)nc(N/C(=N/C#N)Nc2ccc(Cl)c(Cl)c2)n1 [Compound 32, 1-(3,4-Dichlorophenyl)-3-{4-[3-(dimethylamino)propylamino]-6-methyl-2-pyrimidinyl}-2-guanidinecarbonitrile] |  | < 10
C/N=C(\Nc1ccc(Cl)c(Cl)c1)Nc1nc(C)cc(NCCCN(C)C)n1 [Compound 33, 1-{2-[3-(3,4-Dichlorophenyl)-2-methylguanidino]-6-methyl-4-pyrimidinylamino}-3-(dimethylamino)propane] |  | > 30
Cc1cc(NCCCN(C)C)nc(/N=C(/Nc2ccc(Cl)c(Cl)c2)N(C)C)n1 [Compound 34, 1-{2-[3-(3,4-Dichlorophenyl)-1,1-dimethylguanidino]-6-methyl-4-pyrimidinylamino}-3-(dimethylamino)propane] |  | > 30
C/N=C(\Nc1ccc(Cl)c(Cl)c1)Nc1cc(C)cc(NCCCN(C)C)n1 [Compound 35, 1-{6-[3-(3,4-Dichlorophenyl)-2-methylguanidino]-4-methyl-2-pyridylamino}-3-(dimethylamino)propane] |  | 10 to 30
Cc1cc(/N=C(/Nc2ccc(Cl)c(Cl)c2)N(C)C)nc(NCCCN(C)C)c1 [Compound 39, 1-{6-[3-(3,4-Dichlorophenyl)-1,1-dimethylguanidino]-4-methyl-2-pyridylamino}-3-(dimethylamino)propane] |  | > 30

— patent publication US10227333B2, “Inhibition of OLIG2 activity” (Curtana Pharmaceuticals, Inc., priority 2015, dated 2019)
